Test results: patent publication US9549935B2, “Methods and compositions for treating migraines using noribogaine” (DemeRx, Inc., priority 2014, dated 2017)
“Also recorded” adds a separate entry of the source.

Tests used:
Type in all cases: in vivo, human
[1] = Cold pressor test (analgesic effect) in healthy volunteers; settings: 3-60 mg single oral doses vs placebo, 1° C. water
Experimental: Analgesic effect was assessed based on duration of hand immersion in ice water and on visual analog scale (VAS) pain scores upon hand removal from the water bath.
(§1) Safety and tolerability of noribogaine were tested in the group of volunteers from Example 1. Cold pressor testing was conducted in 1° C. water according to the method of Mitchell et al. (J Pain 5:233-237, 2004) pre-dose, 6, 24, 48, 72 and 216 hours post-dosing. Safety evaluations included clinical monitoring, recording of adverse events (AEs), safety laboratory tests, vital signs, ECG telemetry from −2 h to 6 h after dosing, and 12-lead electrocardiograms (ECGs) up to 216 hours post-dosing.

[2] = Safety and tolerability in healthy volunteers (adverse events, vital signs, ECG)
Experimental: Pulse oximetry and capnography data were collected continuously using a GE Carescape B650 monitoring system from 2 hours prior to dosing and until six hours after dosing, and thereafter at 12, 24, 48 and 72 hours post-dosing. Additional oximetry data were collected at 120, 168 and 216 hours. Pupillary miosis was assessed by pupillometry. Dark-adapted pupil diameter was measured in triplicate using a Neuroptics PLR-200 pupillometer under standardized light intensity (<5 lux) pre-dose, and at 2, 4, 6, 12, 24, 48, 72, 96, 120, 168 and 216 hours post-dosing.
as §1

[3] = Plasma noribogaine pharmacokinetics after ascending single oral doses in healthy volunteers; settings: for mean AUC/24 hr / mean AUC/24: fasting, serum; for CL/F: fasted healthy volunteers, mean (SD), n = 6
Excerpt: Thirty-six healthy, drug-free male volunteers, aged between 18-55 years, were enrolled in and completed the study. This was an ascending single-dose, placebo-controlled, randomized double blind, parallel group study. Mean (SD) age was 22.0 (3.3) years, mean (SD) height was 1.82 (0.08) m, and mean (SD) weight was 78.0 (9.2) kg. Twenty-six subjects were Caucasian, 3 were Asian, 1 Maori, 1 Pacific Islander, and 5 Other. The protocol for this study was approved by the Lower South Regional Ethics Committee (LRS/12/06/015), and the study was registered with the Australian New Zealand Clinical Trial Registry (ACTRN12612000821897). All subjects provided signed informed consent prior to enrolment, and were assessed as suitable to participate based on review of medical history, physical examination, safety laboratory tests, vital signs and ECG.
Within each dose level, 6 participants were randomized to receive noribogaine and 3 to receive placebo, based on a computer-generated random code. Dosing began with the lowest noribogaine dose, and subsequent cohorts received the next highest dose after the safety, tolerability, and blinded pharmacokinetics of the completed cohort were reviewed and dose-escalation approved by an independent Data Safety Monitoring Board. Blinded study drug was administered as a capsule with 240 ml of water after an overnight fast of at least 10 hours. […] Participants were confined to the study site from 12 hours prior to drug administration, until 72 hours post-dose, and there were subsequent outpatient assessments until 216 hours post-dose.
Blood was obtained for pharmacokinetic assessments pre-dose and then at 0.25, 0.5, 0.75, 1.0, 1.25, 1.5, 2, 2.5, 3, 3.5, 4, 4.5, 5, 5.5, 6, 7, 8, 10, 12, 14, 18, 24, 30, 36, 48, 60, 72, 96, 120, 168 and 216 hours post-dose. Samples were centrifuged and plasma stored at −70° C. until analyzed. Block 24 hour urine collections were obtained following study drug administration for the 30 and 60 mg cohorts. Aliquots were frozen at −20° C. until analyzed.
Plasma noribogaine concentrations were determined in the 3 mg and 10 mg dose groups using a validated, sensitive LCMSMS method. Sample preparation involved double extraction of basified plasma samples with tert-butyl methyl ether, drying the samples under a stream of nitrogen and reconstitution of sample with acetonitrile:B.P. water (5:95, v/v) containing 0.1% (v/v) formic acid. The compounds were separated by a 150×2.0 mm Luna 5 μm C18 column and detected with a triple-quadrupole API 4000 or 5000 mass spectrometer using electrospray ionization in positive mode and multiple reaction monitoring. Noribogaine-d4 was used as the internal standard. The precursor-product ion transition values for noribogaine were m/z 297.6→122.3, and for the internal standard noribogaine-d4 m/z 301.1→122.2. Analyst® software was used for data acquisition and processing. The ratio of the peak area of noribogaine to the internal standard noribogaine-d4 was used for calibration and measurement of the unknown concentration of noribogaine. The lower limit of quantification (LLOQ) was 0.025 ng/ml noribogaine. The calibration curve was between 0.025 and 25.600 ng/ml noribogaine. Mobile phase A was acetonitrile:B.P. water (5:95, v/v) containing 0.1% (v/v) formic acid, and mobile phase B was acetonitrile:B.P. water (95:5, v/v) containing 0.1% (v/v) formic acid. Total run time was 6 minutes. Binary flow: Initial concentration was 8% mobile phase B; hold at 8% mobile phase B for 0.5 minutes and linear rise to 90% mobile phase B over 1.5 minutes; hold at 90% mobile phase B for 1 minute and then drop back to 8% mobile phase B over 0.01 minute. Equilibrate system for 3 minutes. Total run time was 6 minutes. Within- and between-day assay precision was <9%, and within- and between-day assay accuracy was <9%.
Plasma noribogaine concentrations were determined in the 30 mg and 60 mg dose groups using a validated, sensitive LCMSMS method. […]

[4] = 3 mg dose group, healthy volunteers
[5] = 10 mg dose group, healthy volunteers
[6] = 30 mg dose group, healthy volunteers

Structure (SMILES): CC[C@H]1CC2C[C@H]3c4[nH]c5ccc(O)cc5c4CCN(C2)C13 [Noribogaine, noribogaine]
- analgesic effect in the cold pressor test (duration of hand immersion, VAS pain scores) [1]: no analgesic effect
- Adverse events, Mild [2, 4]: Dizziness; also recorded: Epistaxis; also recorded: Headache; also recorded: Back pain
- Adverse events, Moderate [2, 4]: Headache
- number of adverse events reported [2, 4]: five adverse events were reported by two subjects
- Adverse events, Mild [2, 5]: Headache
- number of adverse events reported [2, 5]: one adverse event was reported by single subjects
- Adverse events, Mild [2, 6]: Headache
- number of adverse events reported [2, 6]: one adverse event was reported by single subjects
- changes in oximetry, capnography, respiratory rate ([2]; 3-60 mg, healthy volunteers): no changes in oximetry or capnography, or changes in respiratory rate
- changes in vital signs or safety laboratory tests ([2]; 3-60 mg, healthy volunteers): no changes in vital signs or safety laboratory tests of note
- QTcF values >500 msec ([2]; 3-60 mg, healthy volunteers, ECG up to 216 hours): no QTcF values >500 msec at any time
- intensity of adverse events ([2]; all dose groups, healthy volunteers): mild-moderate intensity
- single increase in QTcF ([2]; one subject dosed with 10 mg, 24 hours post-dosing): > 60 ms
- Dose-proportionality of Cmax and AUC ([3]; 3-60 mg single oral doses, healthy volunteers): increased linearly with dose
- time of peak concentrations after oral dosing ([3]; across 3-60 mg dose groups, healthy volunteers): 2 to 3 h
- Mean half-life estimates ([3]; across dose groups (3-60 mg), healthy volunteers): 28 to 50 h
- mean AUC/24 hr ([3]; single dose of 3 mg free base): 3.1 ng/mL
- mean AUC/24 hr ([3]; single dose of 10 mg free base): 10.6 ng/mL
- mean AUC/24 ([3]; single dose of 30 mg free base): 29.2 ng/mL
- mean AUC/24 ([3]; single dose of 60 mg free base): 61 ng/mL
- CL/F ([3]; single oral 3 mg dose): 41.4 (7.0) L/h
- CL/F ([3]; single oral 10 mg dose): 42.3 (12.0) L/h
- CL/F ([3]; single oral 30 mg dose): 46.9 (16.4) L/h
- CL/F ([3]; single oral 60 mg dose): 34.0 (11.4) L/h
